Assay results reported in patent US11337970B2, “Inhibitors of indoleamine 2,3-dioxygenase and methods of their use” (BRISTOL-MYERS SQUIBB COMPANY, priority 2016, dated 2022).

What follows are molecules tested against T1, human IDO1 (Homo sapiens, UniProt P14902) (assay: IDO inhibition assay in HEK293 cells stably expressing human IDO1 (kynurenine, Ehrlich reagent)). Conditions: 20 hours incubation, absorbance at 490 nm, read-out: IDO1 HEK Human IC50.
T1 construct: expressed in transfected cells
T1 sequence (P14902 whole entry): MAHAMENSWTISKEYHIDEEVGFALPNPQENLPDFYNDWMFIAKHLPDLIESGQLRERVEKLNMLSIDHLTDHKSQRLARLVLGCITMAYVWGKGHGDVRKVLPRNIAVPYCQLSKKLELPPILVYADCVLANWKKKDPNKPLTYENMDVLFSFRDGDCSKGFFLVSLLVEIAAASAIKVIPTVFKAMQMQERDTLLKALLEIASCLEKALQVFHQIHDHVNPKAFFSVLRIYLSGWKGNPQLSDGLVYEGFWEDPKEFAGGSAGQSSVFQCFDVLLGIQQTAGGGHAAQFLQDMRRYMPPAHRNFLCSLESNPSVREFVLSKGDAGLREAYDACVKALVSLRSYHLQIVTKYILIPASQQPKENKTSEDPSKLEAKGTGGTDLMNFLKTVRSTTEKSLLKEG
Type: cell-based
Protocol: HEK293 cells were transfected with a pCDNA-based mammalian expression vector harboring human IDO1 cDNA (NM 002164.2) by electroporation. They were cultured in medium (DMEM with 10% FBS) containing 1 mg/ml G418 for two weeks. Clones of HEK293 cells that stably expressed human IDO1 protein were selected and expanded for IDO inhibition assay.
The human IDO1/HEK293 cells were seeded at 10,000 cells per 50 μL per well with RPMI/phenol red free media contains 10% FBS in a 384-well black wall clear bottom tissue culture plate (Matrix Technologies LLC) 100 nL of certain concentration of compound was then added to each well using ECHO liquid handling systems. The cells were incubated for 20 hours in 37° C. incubator with 5% CO2.
The compound treatments were stopped by adding trichloroacetic acid (Sigma-Aldrich) to a final concentration at 0.2%. The cell plate was further incubated at 50° C. for 30 minute. The equal volume supernatant (20 μL) and 0.2% (w/v) Ehrlich reagent (4-dimethylaminobenzaldehyde, Sigma-Aldrich) in glacial acetic acid were mixed in a new clear bottom 384-well plate. This plate was then incubated at room temperature for 30 minute. The absorbance at 490 nm was measured on Envision plate reader.
Compound IC50 values were calculated using the counts of 500 nM of a reference standard treatment as one hundred percent inhibition, and counts of no compound but DMSO treatment as zero percent inhibition.

Which IC50 does the source give for `C[C@@H](c1nc2cnccc2[nH]1)[C@H]1CC[C@@H](c2ccnc3ccc(F)cc32)CC1` [Example 5, 4-((cis)-4-((R)-1-(1H-imidazo[4,5-c]pyridin-2-yl)ethyl)cyclohexyl)-6-fluoroquinoline] here?
The IC50 was 105 nM.

Which IC50 does the source give for `C[C@@H](Nc1nc2ccc(Cl)cc2s1)[C@H]1CC[C@@H](c2ccnc3ccc(F)cc32)CC1` [Example 8, 6-chloro-N—((R)-1-((cis)-4-(6-fluoroquinolin-4-yl)cyclohexyl)ethyl)benzo[d]thiazol-2-amine] here?
The IC50 was 730 nM.

How did the IC50 turn out when `C[C@@H](Nc1nc2ccccc2s1)[C@H]1CC[C@@H](c2ccnc3ccc(F)cc32)CC1` [Example 10] was run?
The IC50 was 194 nM.

How did the IC50 turn out when `C[C@@H](c1nc2cc3c(cc2[nH]1)OCO3)[C@H]1CC[C@@H](c2ccnc3ccc(F)cc32)CC1` [Example 4, 6-((R)-1-((cis)-4-(6-fluoroquinolin-4-yl)cyclohexyl)ethyl)-5H-[1,3]dioxolo[4′,5′:4,5]benzo[1,2-d]imidazole] was run?
The IC50 was 1.5 nM.

How did the IC50 turn out when `CCC(c1nc2ccc(Cl)cc2[nH]1)[C@H]1CC[C@H](Oc2ccnc3ccccc23)CC1` (mixture of isomers) [Example 13, 4-(((trans)-4-(1-(6-chloro-1H-benzo[d]imidazol-2-yl)propyl)cyclohexyl)oxy)quinoline] was run?
The IC50 was 3.4 nM.

With `CCC(c1nc2ccc(Cl)cc2[nH]1)[C@H]1CC[C@@H](Oc2ccnc3ccccc23)CC1` (stereo partly drawn) [Example 51, 4-(((1s,4s)-4-(1-(6-chloro-1H-benzo[d]imidazol-2-yl)propyl)cyclohexyl)oxy)quinoline] as the molecule, how does the IC50 read?
Its IC50 is 1060 nM.

How did the IC50 turn out when `CC[C@H](c1nc2ccc(Cl)cc2[nH]1)[C@H]1CC[C@@H](c2ccnc3ccc(F)cc32)CC1` (single isomer, unassigned) [Example 15-2, 4-(4-(1-(6-chloro-1H-benzo[d]imidazol-2-yl)propyl)cyclohexyl)-6-fluoroquinoline] was run?
The IC50 was 110 nM.

Which IC50 does the source give for `CC[C@H](c1nc2ccc(Cl)cc2[nH]1)[C@H]1CC[C@@H](c2ccnc3ccc(F)cc32)CC1` (single isomer, unassigned) [Example 15-1, 4-(4-(1-(6-chloro-1H-benzo[d]imidazol-2-yl)propyl)cyclohexyl)-6-fluoroquinoline] here?
Its IC50 is 40.6 nM.

`CCC(c1nc2ccc(Cl)cc2[nH]1)[C@H]1CC[C@@H](Oc2ccnc3ccccc23)CC1` (stereo partly drawn) [Example 14, 4-(((cis)-4-(1-(6-chloro-1H-benzo[d]imidazol-2-yl)propyl)cyclohexyl)oxy)quinoline] was tested. Which IC50 did it give?
The IC50 was 322 nM.

`CC(c1nc2ccc(Cl)cc2[nH]1)C1CCC(c2ccnc3ccccc23)CC1` (single isomer, unassigned) [Example 16-1, (±)-4-(4-(1-(6-chloro-1H-benzo[d]imidazol-2-yl)ethyl)cyclohexyl)quinoline] was tested. Which IC50 did it give?
The IC50 was 54.1 nM.

With `COc1ccc2nc(N[C@H](C)[C@H]3CC[C@@H](c4ccnc5ccc(F)cc54)CC3)[nH]c2c1` [Example 9, N-((R)-1-((cis)-4-(6-fluoroquinolin-4-yl)cyclohexyl)ethyl)-6-methoxy-1H-benzo[d]imidazol-2-amine] as the molecule, how does the IC50 read?
Its IC50 is 263 nM.

How did the IC50 turn out when `C[C@@H](Nc1nc2ccccc2[nH]1)[C@H]1CC[C@@H](c2ccnc3ccc(F)cc32)CC1` [Example 12, N-((R)-1-((cis)-4-(6-fluoroquinolin-4-yl)cyclohexyl)ethyl)-1H-benzo[d]imidazol-2-amine] was run?
The IC50 was 139 nM.

These molecules were tested against T2, indoleamine 2,3-dioxygenase (IDO) (Homo sapiens, UniProt P14902) (assay: HeLa cell-based indoleamine 2,3-dioxygenase (IDO) assay (kynurenine production)). Conditions: HeLa cells, IFNγ 25 ng/mL, 48 hour incubation, absorbance at 480 nm.
T2 construct: host or cells: HeLa cells stimulated with IFNγ (25 ng/mL)
T2 sequence (P14902 whole entry): as above
Protocol: Assessment of inhibitor activity in HeLa cell-based indoleamine 2,3-dioxygenase (IDO) assay:
HeLa (ATCC® CCL-2) cells were obtained from the ATCC® and cultured in Dulbecco's Modified Eagle Medium supplemented with 4.5 g/L glucose, […] (#10-013-CV, Corning), 2 mM L-alanyl-L-glutamine dipeptide (#35050-061, Gibco), 100U/mL penicillin, 100 μg/mL streptomycin (#SV30010, HyClone) and 10% fetal bovine serum (#SH30071.03 HyClone). Cells were maintained in a humidified incubator at 37° C. in 5% CO2.
IDO activity was assessed as a function of kynurenine production as follows: HeLa cells were seeded in a 96-well culture plate at a density of 5,000 cells/well and allowed to equilibrate overnight. After 24 hours, the media was aspirated and replaced with media containing IFNγ (#285-IF/CF, R&D Systems) at a final concentration of 25 ng/mL. A serial dilution of each test compound was added to the cells in a total volume of 200 μL of culture medium. After a further 48 hour incubation, 170 μL of supernatant was transferred from each well to a fresh 96-well plate. 12.1 μL of 6.1N trichloroacetic acid (#T0699, Sigma-Aldrich) was added to each well and mixed, followed by incubation at 65° C. for 20 minutes to hydrolyze N-formylkynurenine, the product of indoleamine 2,3-dioxygenase, to kynurenine. The reaction mixture was then centrifuged for 10 mins at 500×g to sediment the precipitate. 100 μL of the supernatant was transferred from each well to afresh 96-well plate. 100 μl of 2% (w/v) p-dimethylaminobenzaldehyde (#15647-7, Sigma-Aldrich) in acetic acid (#A6283, Sigma-Aldrich) was added to each well mixed and incubated at room temperature for 20 mins. Kynurenine concentrations were determined by measuring absorbance at 480 nm and calibrating against an L-kynurenine (#K8625, Sigma-Aldrich) standard curve using a SPECTRAMAX® M2e microplate reader (Molecular Devices). The percentage activity at each inhibitor concentration was determined and IC50 values assessed using nonlinear regression.

Which IC50 does the source give for `CC(c1nc2ccc(Cl)cc2[nH]1)C1CCC(c2ccnc3ncccc23)CC1` (mixture of isomers) [Example 34, (±)-Cis and trans-(4-(1-(6-chloro-1H-benzo[d]imidazol-2-yl)ethyl)cyclohexyl)-1,8-naphthyridine] here?
The IC50 was 68.1 nM.

Which IC50 does the source give for `CCC(c1nc2ncc(Cl)cc2[nH]1)[C@H]1CC[C@@H](c2ccnc(F)c2C)CC1` (single isomer, unassigned) [Example 24-1, 6-chloro-2-(1-((cis)-4-(2-fluoro-3-methylpyridin-4-yl)cyclohexyl)-3-propyl)-1H-imidazo[4,5-b]pyridine] here?
The IC50 was 375 nM.

With `CCC(c1nc2ccc(Cl)cc2[nH]1)[C@H]1CC[C@@H](c2ccnc(F)c2C)CC1` (single isomer, unassigned) [Example 23-2, 6-chloro-2-(1-((cis)-4-(2-fluoro-3-methylpyridin-4-yl)cyclohexyl)-3-propyl)-1H-benzo[d]imidazole] as the molecule, how does the IC50 read?
The IC50 was 3.2 nM.

Which IC50 does the source give for `C[C@@H](c1cn2ncccc2n1)[C@H]1CC[C@@H](c2ccnc3ccc(F)cc32)CC1` [Example 31, 6-fluoro-4-((cis)-4-((R)-1-(imidazo[1,2-b]pyridazin-2-yl)ethyl)cyclohexyl)quinoline] here?
Its IC50 is 607 nM.

With `C[C@H](c1nc2ccc(Cl)cc2[nH]1)[C@H]1CC[C@@H](c2ccnc(C(F)(F)F)c2)CC1` (single isomer, unassigned) [Example 39-2, 6-chloro-2-(1-(4-(2-(trifluoromethyl)pyridin-4-yl)cyclohexyl)ethyl)-1H-benzo[d]imidazole] as the molecule, how does the IC50 read?
Its IC50 is 75.4 nM.

With `CC(c1nc2ccc(Cl)cc2[nH]1)C1CCC(c2ccnc3ncccc23)CC1` (stereo not drawn) [Example 35-1] as the molecule, how does the IC50 read?
Its IC50 is 1000 nM.

Which IC50 does the source give for `C[C@H](c1nc2ccc(Cl)cc2[nH]1)[C@H]1CC[C@@H](c2ccnc(C(F)(F)F)c2)CC1` (single isomer, unassigned) [Example 39-3, 6-chloro-2-(1-(4-(2-(trifluoromethyl)pyridin-4-yl)cyclohexyl)ethyl)-1H-benzo[d]imidazole] here?
The IC50 was 117 nM.

How did the IC50 turn out when `CCOCC(c1nc2ccc(Cl)cc2[nH]1)[C@H]1CC[C@@H](c2ccnc(F)c2C)CC1` (single isomer, unassigned) [Example 25-2, 6-chloro-2-(2-ethoxy-1-((cis)-4-(2-fluoro-3-methylpyridin-4-yl)cyclohexyl)ethyl)-1H-benzo[d]imidazole] was run?
The IC50 was 22.9 nM.

For `CCC(c1nc2ncc(Cl)cc2[nH]1)[C@H]1CC[C@@H](c2ccnc3ccc(C(F)(F)F)cc32)CC1` (single isomer, unassigned) [Example 22-1, 4-((cis)-4-(1-(6-chloro-1H-imidazo[4,5-b]pyridin-2-yl)propyl)cyclohexyl)-6-(trifluoromethyl)quinoline], which IC50 is on record?
Its IC50 is 2.4 nM.

How did the IC50 turn out when `C[C@H](c1nc2ccc(Cl)cc2[nH]1)[C@H]1CC[C@@H](c2ccnc(C(F)(F)F)c2)CC1` (single isomer, unassigned) [Example 39-1, 6-chloro-2-(1-(4-(2-(trifluoromethyl)pyridin-4-yl)cyclohexyl)ethyl)-1H-benzo[d]imidazole] was run?
Its IC50 is 170 nM.

For `CCOCC(c1nc2ccc(Cl)cc2[nH]1)[C@H]1CC[C@@H](c2ccnc(F)c2C)CC1` (single isomer, unassigned) [Example 25-1, 6-chloro-2-(2-ethoxy-1-((cis)-4-(2-fluoro-3-methylpyridin-4-yl)cyclohexyl)ethyl)-1H-benzo[d]imidazole], which IC50 is on record?
The IC50 was 10.2 nM.

With `CCC(c1nc2ncc(Cl)cc2[nH]1)[C@H]1CC[C@H](Oc2ccnc3ccccc23)CC1` (single isomer, unassigned) [Example 20-1] as the molecule, how does the IC50 read?
Its IC50 is 6 nM.

`C[C@@H](c1ncc2ccccn12)[C@H]1CC[C@@H](c2ccnc3ccc(F)cc32)CC1` [Example 27, 6-fluoro-4-((cis)-4-((R)-1-(imidazo[1,5-a]pyridin-3-yl)ethyl)cyclohexyl)quinoline] was tested. Which IC50 did it give?
The IC50 was 836 nM.

With `COCC(c1nc2ccc(Cl)cc2[nH]1)[C@H]1CC[C@@H](c2ccnc3ccc(C(F)(F)F)cc32)CC1` (mixture of isomers) [Example 18, (±)-4-((cis)-4-(1-(6-chloro-1H-benzo[d]imidazol-2-yl)-2-methoxyethyl)cyclohexyl)-6-(trifluoromethyl)quinoline] as the molecule, how does the IC50 read?
Its IC50 is 12.1 nM.

`CC(c1nc2ccc(Cl)cc2[nH]1)C1CCC(c2ccnc3ncccc23)CC1` (single isomer, unassigned) [Example 35-2] was tested. Which IC50 did it give?
The IC50 was 14.3 nM.
